Source: PubChem BioAssay AID1963985 (Molecular Pharmacology Branch, DTP, NCI, 2024)
One block for each compound: values may come before it.

Test system: 252836-082-R-J2-PDC tumor spheroids, viability
Assay: Anticancer human tumor 252836-082-R-J2-PDC patient-derived head and neck squamous cell carcinoma cell line growth inhibition [PI3K]
Conditions: spheroids with HUVEC and MSC; for IC50: curve of first compound; for viability, T/C: stronger effect = lower value
Summary of the method: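 Tumor cells grown as multi-cell spheroids with HUVEC endothelial cells and MSC fibroblast-like stroma were treated with targeted agents combined with inavolisib, alpelisib, duvelisib or copanlisib. Doses fell in half-log steps from near clinical Cmax, else from 10 microM. Viability was measured.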

[1] = second compound 0.0316 µM, first compound 0.0316 µM
[2] = second compound 0.0316 µM, first compound 0.1 µM
[3] = second compound 0.0316 µM, first compound 0.316 µM
[4] = second compound 0.0316 µM, first compound 1 µM
[5] = second compound 0.0316 µM, first compound 3.16 µM
[6] = second compound 0.0316 µM, first compound 10 µM
[7] = second compound 0.1 µM, first compound 0.0316 µM
[8] = second compound 0.1 µM, first compound 0.1 µM
[9] = second compound 0.1 µM, first compound 0.316 µM
[10] = second compound 0.1 µM, first compound 1 µM
[11] = second compound 0.1 µM, first compound 3.16 µM
[12] = second compound 0.1 µM, first compound 10 µM
[13] = second compound 0.316 µM, first compound 0.0316 µM
[14] = second compound 0.316 µM, first compound 0.1 µM
[15] = second compound 0.316 µM, first compound 0.316 µM
[16] = second compound 0.316 µM, first compound 1 µM
[17] = second compound 0.316 µM, first compound 3.16 µM
[18] = second compound 0.316 µM, first compound 10 µM
[19] = second compound 1 µM, first compound 0.0316 µM
[20] = second compound 1 µM, first compound 0.1 µM
[21] = second compound 1 µM, first compound 0.316 µM
[22] = second compound 1 µM, first compound 1 µM
[23] = second compound 1 µM, first compound 3.16 µM
[24] = second compound 1 µM, first compound 10 µM
[25] = second compound 3.16 µM, first compound 0.0316 µM
[26] = second compound 3.16 µM, first compound 0.1 µM
[27] = second compound 3.16 µM, first compound 0.316 µM
[28] = second compound 3.16 µM, first compound 1 µM
[29] = second compound 3.16 µM, first compound 3.16 µM
[30] = second compound 3.16 µM, first compound 10 µM
[31] = second compound 10 µM, first compound 0.0316 µM
[32] = second compound 10 µM, first compound 0.1 µM
[33] = second compound 10 µM, first compound 0.316 µM
[34] = second compound 10 µM, first compound 1 µM
[35] = second compound 10 µM, first compound 3.16 µM
[36] = second compound 10 µM, first compound 10 µM
[37] = second compound 0.0316 µM, first compound 0.00316 µM
[38] = second compound 0.0316 µM, first compound 0.01 µM
[39] = second compound 0.1 µM, first compound 0.00316 µM
[40] = second compound 0.1 µM, first compound 0.01 µM
[41] = second compound 0.316 µM, first compound 0.00316 µM
[42] = second compound 0.316 µM, first compound 0.01 µM
[43] = second compound 1 µM, first compound 0.00316 µM
[44] = second compound 1 µM, first compound 0.01 µM
[45] = second compound 3.16 µM, first compound 0.00316 µM
[46] = second compound 3.16 µM, first compound 0.01 µM
[47] = second compound 10 µM, first compound 0.00316 µM
[48] = second compound 10 µM, first compound 0.01 µM
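Further: spheroids exposed to agents for seven days before readout.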
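Wherever viability, T/C is given: percent of vehicle DMSO control viability so 100% = untreated growth.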

- IC50 (second compound 0.0316 µM): 0.977 µM
- IC50 (second compound 0.1 µM): 0.784 µM
- IC50 (second compound 0.316 µM): 0.834 µM
- IC50 (second compound 1 µM): 0.461 µM
- IC50 (second compound 3.16 µM): < 0.0316 µM
- IC50 (second compound 10 µM): < 0.0316 µM
SMILES: CC(C)NCC(C(=O)N1CCN(c2ncnc3c2C(C)CC3O)CC1)c1ccc(Cl)cc1 (stereo not drawn) + Cc1nc(NC(=O)N2CCCC2C(N)=O)sc1-c1ccnc(C(C)(C)C(F)(F)F)c1
- viability, T/C [1]: 87.3%
- viability, T/C [2]: 73.3%
- viability, T/C [3]: 76.3%
- viability, T/C [4]: 47.9%
- viability, T/C [5]: 30.2%
- viability, T/C [6]: 22.1%
- viability, T/C [7]: 87.8%
- viability, T/C [8]: 73.7%
- viability, T/C [9]: 64%
- viability, T/C [10]: 47.7%
- viability, T/C [11]: 29.5%
- viability, T/C [12]: 19.2%
- viability, T/C [13]: 70.3%
- viability, T/C [14]: 67.3%
- viability, T/C [15]: 68.9%
- viability, T/C [16]: 44.5%
- viability, T/C [17]: 31.7%
- viability, T/C [18]: 21%
- viability, T/C [19]: 55.6%
- viability, T/C [20]: 50.3%
- viability, T/C [21]: 60.1%
- viability, T/C [22]: 40.2%
- viability, T/C [23]: 29.5%
- viability, T/C [24]: 19.1%
- viability, T/C [25]: 41.3%
- viability, T/C [26]: 48.1%
- viability, T/C [27]: 43%
- viability, T/C [28]: 36.5%
- viability, T/C [29]: 25.8%
- viability, T/C [30]: 17.2%
- viability, T/C [31]: 32.8%
- viability, T/C [32]: 36.1%
- viability, T/C [33]: 27.8%
- viability, T/C [34]: 21.6%
- viability, T/C [35]: 19.8%
- viability, T/C [36]: 10.1%

- IC50 (second compound 0.0316 µM): > 1 µM
- IC50 (second compound 0.1 µM): > 1 µM
- IC50 (second compound 0.316 µM): > 1 µM
- IC50 (second compound 1 µM): > 1 µM
- IC50 (second compound 3.16 µM): < 0.00316 µM
- IC50 (second compound 10 µM): < 0.00316 µM
SMILES: CCN1CCN(Cc2ccc(Nc3ncc(F)c(-c4cc(F)c5nc(C)n(C(C)C)c5c4)n3)nc2)CC1 + Cc1nc(NC(=O)N2CCCC2C(N)=O)sc1-c1ccnc(C(C)(C)C(F)(F)F)c1
- viability, T/C [37]: 101%
- viability, T/C [38]: 94.1%
- viability, T/C [1]: 80.8%
- viability, T/C [2]: 80.5%
- viability, T/C [3]: 91.3%
- viability, T/C [4]: 87%
- viability, T/C [39]: 84.2%
- viability, T/C [40]: 85%
- viability, T/C [7]: 77.8%
- viability, T/C [8]: 80.2%
- viability, T/C [9]: 85.7%
- viability, T/C [10]: 86.3%
- viability, T/C [41]: 67.8%
- viability, T/C [42]: 74.8%
- viability, T/C [13]: 64.7%
- viability, T/C [14]: 69.9%
- viability, T/C [15]: 59%
- viability, T/C [16]: 68%
- viability, T/C [43]: 58.3%
- viability, T/C [44]: 74.9%
- viability, T/C [19]: 59.4%
- viability, T/C [20]: 61.9%
- viability, T/C [21]: 62.5%
- viability, T/C [22]: 46.4%
- viability, T/C [45]: 49.1%
- viability, T/C [46]: 39.4%
- viability, T/C [25]: 43.5%
- viability, T/C [26]: 40.2%
- viability, T/C [27]: 44.2%
- viability, T/C [28]: 43.1%
- viability, T/C [47]: 35.4%
- viability, T/C [48]: 42.1%
- viability, T/C [31]: 27.5%
- viability, T/C [32]: 40.1%
- viability, T/C [33]: 32%
- viability, T/C [34]: 21.1%

- IC50 (second compound 0.0316 µM): > 10 µM
- IC50 (second compound 0.1 µM): > 10 µM
- IC50 (second compound 0.316 µM): > 10 µM
- IC50 (second compound 1 µM): > 10 µM
- IC50 (second compound 3.16 µM): < 0.0316 µM
- IC50 (second compound 10 µM): < 0.0316 µM
SMILES: C[C@@H](NC(=O)c1ncnc(N)c1Cl)c1ncc(C(=O)Nc2cc(C(F)(F)F)c(Cl)cn2)s1 + Cc1nc(NC(=O)N2CCCC2C(N)=O)sc1-c1ccnc(C(C)(C)C(F)(F)F)c1
- viability, T/C [1]: 95.5%
- viability, T/C [2]: 84.1%
- viability, T/C [3]: 88.9%
- viability, T/C [4]: 81.2%
- viability, T/C [5]: 76.9%
- viability, T/C [6]: 82.5%
- viability, T/C [7]: 79.7%
- viability, T/C [8]: 70.8%
- viability, T/C [9]: 85.2%
- viability, T/C [10]: 74.1%
- viability, T/C [11]: 85.9%
- viability, T/C [12]: 74.1%
- viability, T/C [13]: 72%
- viability, T/C [14]: 79.2%
- viability, T/C [15]: 69.8%
- viability, T/C [16]: 78.4%
- viability, T/C [17]: 74.7%
- viability, T/C [18]: 69.7%
- viability, T/C [19]: 58.6%
- viability, T/C [20]: 62%
- viability, T/C [21]: 61.9%
- viability, T/C [22]: 54.9%
- viability, T/C [23]: 61.3%
- viability, T/C [24]: 50.8%
- viability, T/C [25]: 40%
- viability, T/C [26]: 48.6%
- viability, T/C [27]: 43.2%
- viability, T/C [28]: 42.5%
- viability, T/C [29]: 42.4%
- viability, T/C [30]: 42.9%
- viability, T/C [31]: 35.2%
- viability, T/C [32]: 39.6%
- viability, T/C [33]: 35.2%
- viability, T/C [34]: 30.6%
- viability, T/C [35]: 23.4%
- viability, T/C [36]: 12.6%

- IC50 (second compound 0.0316 µM): > 0.1 µM
- IC50 (second compound 0.1 µM): > 0.1 µM
- IC50 (second compound 0.316 µM): > 0.1 µM
- IC50 (second compound 1 µM): 0.0172 µM
- IC50 (second compound 3.16 µM): < 0.000316 µM
- IC50 (second compound 10 µM): < 0.000316 µM
SMILES: Cn1ncnc1[C@H]1c2n[nH]c(=O)c3cc(F)cc(c23)N[C@@H]1c1ccc(F)cc1 + Cc1nc(NC(=O)N2CCCC2C(N)=O)sc1-c1ccnc(C(C)(C)C(F)(F)F)c1
- viability, T/C (second compound 0.0316 µM, first compound 0.000316 µM): 88.5%
- viability, T/C (second compound 0.0316 µM, first compound 0.001 µM): 94.1%
- viability, T/C [37]: 96.9%
- viability, T/C [38]: 76.2%
- viability, T/C [1]: 75.2%
- viability, T/C [2]: 58.5%
- viability, T/C (second compound 0.1 µM, first compound 0.000316 µM): 80.2%
- viability, T/C (second compound 0.1 µM, first compound 0.001 µM): 71.3%
- viability, T/C [39]: 83.4%
- viability, T/C [40]: 65.6%
- viability, T/C [7]: 78.5%
- viability, T/C [8]: 58.4%
- viability, T/C (second compound 0.316 µM, first compound 0.000316 µM): 62.3%
- viability, T/C (second compound 0.316 µM, first compound 0.001 µM): 70.8%
- viability, T/C [41]: 66.6%
- viability, T/C [42]: 57.6%
- viability, T/C [13]: 55.6%
- viability, T/C [14]: 50.6%
- viability, T/C (second compound 1 µM, first compound 0.000316 µM): 58.5%
- viability, T/C (second compound 1 µM, first compound 0.001 µM): 59.2%
- viability, T/C [43]: 53.9%
- viability, T/C [44]: 61.7%
- viability, T/C [19]: 40.6%
- viability, T/C [20]: 32.4%
- viability, T/C (second compound 3.16 µM, first compound 0.000316 µM): 42.7%
- viability, T/C (second compound 3.16 µM, first compound 0.001 µM): 48.8%
- viability, T/C [45]: 39%
- viability, T/C [46]: 44.7%
- viability, T/C [25]: 40.4%
- viability, T/C [26]: 23.4%
- viability, T/C (second compound 10 µM, first compound 0.000316 µM): 31.8%
- viability, T/C (second compound 10 µM, first compound 0.001 µM): 38.5%
- viability, T/C [47]: 33.6%
- viability, T/C [48]: 26.5%
- viability, T/C [31]: 21.9%
- viability, T/C [32]: 21.6%
